Laboratory results published in ChEMBL document CHEMBL3813639, “The Halicylindramides, Farnesoid X Receptor Antagonizing Depsipeptides from a Petrosia sp. Marine Sponge Collected in Korea” (J Nat Prod, 2016).
Calls of active or inactive are those of the source. The calls are words filed in the database; no cut-off is given here.

What was measured:
[1] = target: T1, Bile acid receptor (Homo sapiens) (UniProt Q96RI1); assay: Antagonist activity at human FXR expressed in CV-1 cells assessed as inhibition of CDCA-induced receptor transactivation upto 100 uM after 24 hrs by luciferase reporter gene assay; assay type: cell-based
T1 sequence (whole entry): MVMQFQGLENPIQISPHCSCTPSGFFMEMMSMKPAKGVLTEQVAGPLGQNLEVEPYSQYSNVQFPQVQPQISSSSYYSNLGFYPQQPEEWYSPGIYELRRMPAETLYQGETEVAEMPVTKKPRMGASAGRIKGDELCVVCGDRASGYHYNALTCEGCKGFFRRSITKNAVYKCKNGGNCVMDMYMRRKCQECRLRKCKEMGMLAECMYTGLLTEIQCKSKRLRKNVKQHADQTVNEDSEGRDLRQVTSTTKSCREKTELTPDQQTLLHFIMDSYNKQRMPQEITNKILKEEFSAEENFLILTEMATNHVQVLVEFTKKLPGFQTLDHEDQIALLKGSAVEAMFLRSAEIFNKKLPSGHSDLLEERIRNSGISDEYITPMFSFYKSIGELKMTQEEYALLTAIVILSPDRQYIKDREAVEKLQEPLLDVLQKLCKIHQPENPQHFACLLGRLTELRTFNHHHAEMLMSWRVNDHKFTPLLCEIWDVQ

HepG2 = assay: cells; conditions: Homo sapiens, HepG2, 24 h
Description: Cytotoxicity against human HepG2 cells after 24 hrs by MTT assay

[2] = tested on: Human immunodeficiency virus 1; assay: Antiviral activity against HIV1 RF assessed as inhibition of viral infection in human T-lymphoblastoid cells; assay type: functional, organism-based; conditions: Human immunodeficiency virus 1, RF
Mus musculus = assay: Antiinflammatory activity in Swiss mouse assessed as inhibition of carrageenan-induced paw edema at 0.3 mg/kg, ip by hydroplethismometer; assay type: functional
Bile acid receptor = target: T2, Bile acid receptor (Homo sapiens, UniProt Q96RI1); assay: Antagonist activity at human FXR expressed in CV-1 cells assessed as inhibition of CDCA-induced receptor transactivation after 24 hrs by luciferase reporter gene assay; assay type: cell-based
T2 sequence (Q96RI1 whole entry): T1 sequence (whole entry)

MCF7 = assay: Antiproliferative activity against human MCF7 cells after 20 hrs by microculture tetrazolium assay; assay type: functional; conditions: MCF7, 20 h, read-out: ED50 (the source's name)
[3] = tested on: Human immunodeficiency virus 1; assay: Antiviral activity against HIV1 3B infected in human PBMC cells assessed as reduction in reverse transcriptase activity after 5 days by XTT assay; assay type: functional, organism-based; conditions: Human immunodeficiency virus 1, 3B, 120 h

SMILES: CC(C)[C@@H](NC(=O)[C@H]1CCCN1C(=O)[C@H](Cc1ccc(Br)cc1)NC(=O)[C@@H](C)NC=O)C(=O)N[C@H](C(=O)N[C@H](C[C@@]1(O)C(=O)Nc2ccccc21)C(=O)N[C@@H](CCCNC(=N)N)C(=O)N[C@H](CS(=O)(=O)O)C(=O)N[C@H]1C(=O)N(C)[C@H](CCC(N)=O)C(=O)N[C@@H](Cc2ccccc2)C(=O)N[C@H]([C@H](C)O)C(=O)N[C@H](CC(N)=O)C(=O)N(C)CC(=O)O[C@@H]1C)C(C)(C)C
- inhibition [1]: inactive
- IC50 (HepG2): 100 µM

SMILES: CCC(C)/C=C(C)/C=C\C(O)C(C)(O)C(=O)NCC(=O)N[C@@H](C(=O)N[C@H](C(=O)N[C@H](C(=O)N[C@H]1C(=O)N[C@H](COC)C(=O)NCC(=O)N[C@@H](C)CN(C)[C@H]([C@@H](C)O)CNC(C(OC)c2ccc(O)cc2)C(=O)N2CCCC[C@H]2C(=O)O[C@@H]1C(C)C)[C@@H](C)[C@@H](C)C(N)=O)[C@H](C)N)[C@@H](C)O (stereo not given in full)
- EC50 [2]: 0.0026 µM

SMILES: COc1cccc2c1C(=O)c1c(O)c3c(c(O)c1C2=O)C[C@@](O)(C(=O)CO)C[C@@H]3O[C@H]1C[C@H](N)[C@H](O)[C@H](C)O1 [DOXORUBICIN]
- IC50 (HepG2): 2.1 µM

SMILES: CCC[C@@H](CC[C@@H](C)[C@@H]1OC(=O)[C@H](C)NC(=O)[C@H]([C@@H](C)CCO)N(C)C(=O)[C@]2(C)CSC(=N2)[C@H](C)NC(=O)C1(C)C)OC
- inhibition in vivo at 0.3 mg/kg (Mus musculus): 60%

SMILES: CC(C)[C@H](NC(=O)[C@H](NC(=O)[C@@H]1CCCN1C(=O)[C@H](Cc1ccc(Br)cc1)NC(=O)[C@@H](C)NC=O)C(C)C)C(=O)N[C@H](Cc1c[nH]c2ccccc12)C(=O)N[C@@H](CCCNC(=N)N)C(=O)N[C@H](CS(=O)(=O)O)C(=O)N[C@@H]1C(=O)N(C)[C@@H](CCC(N)=O)C(=O)N[C@H](Cc2ccccc2)C(=O)N[C@@H]([C@@H](C)O)C(=O)N[C@@H](CC(N)=O)C(=O)N(C)CC(=O)O[C@@H]1C
- IC50 (Bile acid receptor): 0.5 µM
- IC50 (HepG2): 20 µM

SMILES: CN[C@H](C(=O)N[C@H](C(=O)N(C)[C@H](/C=C(\C)C(=O)O)C(C)C)C(C)(C)C)C(C)(C)c1cn(C)c2ccccc12 [HEMIASTERLIN]
- EC50 (MCF7): 0.0005 µM

SMILES: CC(C)[C@@H](NC(=O)[C@@H]1CCCN1C(=O)[C@H](Cc1ccc(Br)cc1)NC(=O)[C@@H](C)NC=O)C(=O)N[C@H](C(=O)N[C@H](Cc1c[nH]c2ccccc12)C(=O)N[C@@H](CCCNC(=N)N)C(=O)N[C@H](CS(=O)(=O)O)C(=O)N[C@@H]1C(=O)N(C)[C@@H](CCC(N)=O)C(=O)N[C@H](Cc2ccccc2)C(=O)N[C@@H]([C@@H](C)O)C(=O)N[C@@H](CC(N)=O)C(=O)N(C)CC(=O)O[C@@H]1C)C(C)(C)C
- IC50 (Bile acid receptor): 5 µM
- IC50 (HepG2): 100 µM

SMILES: CC[C@@H](C)C[C@@H](C)[C@@H](O)[C@@H](C)C(=O)N[C@H](CCCN)C(=O)N[C@@H](CCC(=O)O)[C@@H](O)[C@@H](O)C(=O)N[C@H](C(=O)N[C@H]1C(=O)N[C@H](CO)C(=O)N[C@H](CCCN)C(=O)N[C@@H](CC(C)C)C(=O)N(C)[C@@H](CCC(N)=O)C(=O)N[C@@H]([C@@H](C)OC)C(=O)N[C@H](CC(=O)O)C(=O)N2CCCC[C@H]2C(=O)O[C@@H]1[C@H](C)C(C)C)[C@@H](C)[C@@H](C)C(N)=O
- IC50 [3]: 0.075 µM

SMILES: CC(C)[C@@H](NC(=O)[C@H]1CCCN1C(=O)[C@H](Cc1ccccc1)NC(=O)[C@@H](C)NC=O)C(=O)N[C@H](C(=O)N[C@H](Cc1c[nH]c2ccccc12)C(=O)N[C@@H](CCCNC(=N)N)C(=O)N[C@H](CS(=O)(=O)O)C(=O)N[C@H]1C(=O)N(C)[C@H](CCC(N)=O)C(=O)N[C@@H](Cc2ccccc2)C(=O)N[C@H]([C@H](C)O)C(=O)N[C@H](CC(N)=O)C(=O)N(C)CC(=O)O[C@@H]1C)C(C)(C)C
- IC50 (Bile acid receptor): 6 µM
- IC50 (HepG2): 100 µM

SMILES: CC(C)[C@@H](NC(=O)[C@H]1CCCN1C(=O)[C@H](Cc1ccc(Br)cc1)NC(=O)[C@@H](C)NC=O)C(=O)N[C@H](C(=O)N[C@H](C[C@]1(O)C(=O)Nc2ccccc21)C(=O)N[C@@H](CCCNC(=N)N)C(=O)N[C@H](CS(=O)(=O)O)C(=O)N[C@H]1C(=O)N(C)[C@H](CCC(N)=O)C(=O)N[C@@H](Cc2ccccc2)C(=O)N[C@H]([C@H](C)O)C(=O)N[C@H](CC(N)=O)C(=O)N(C)CC(=O)O[C@@H]1C)C(C)(C)C
- inhibition [1]: inactive
- IC50 (HepG2): 100 µM
